“And” between values parts separate entries of the source, which are not always exact repeats. Equal entries are not always repeated.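 Where inhibition never reached the appropriate level, the endpoint shown equals the highest concentration tested. Otherwise, values were interpolated linearly from a five-concentration, 48-hour dose response in 96-well plates. GI50 marks 50% less growth. TGI: concentration producing complete growth inhibition.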

Some test systems named below: ACHN renal; DU-145 prostate; HCT-116 colon; HS 578T breast; LOX IMVI melanoma; MOLT-4 leukemia; NCI/ADR-RES ovarian; SF-295 CNS; SNB-75 CNS; U251 CNS.
Assay in all cases: DTP human tumour cell line panel, 48 h

As to `Cc1ccc(NC(=O)c2ccc(CN3CCN(C)CC3)cc2)cc1Nc1nc(-c2cccnc2)cs1`, the GI50 (commonly the concentration giving 50% growth inhibition) with ACHN renal is 11.7 µM and 4.15 µM; in the assay on DU-145 prostate, 15 µM and > 10 µM; in the assay on HCT-116 colon, 3.74 µM and 3.05 µM; with HS 578T breast, 8.45 µM and 3.52 µM; in the assay on LOX IMVI melanoma, 2.47 µM and 3.06 µM; in the assay on MOLT-4 leukemia it was 3.11 µM and 2.67 µM. Further, the GI50 in the assay with NCI/ADR-RES ovarian was 22.7 µM and 7.39 µM; in the assay with SF-295 CNS, 3.3 µM and 1.92 µM; in the assay on SNB-75 CNS it was 14.8 µM and 7.43 µM; with U251 CNS, 3.74 µM and 2.92 µM. Besides, the TGI (in general, the concentration at which net growth stops) in the assay with ACHN renal is 24.7 µM and > 10 µM; in the assay on DU-145 prostate it was 28.4 µM and > 10 µM; with HCT-116 colon it was 14.8 µM and > 10 µM; in the assay with HS 578T breast it was 41.6 µM and > 10 µM; with LOX IMVI melanoma, 5.8 µM and > 10 µM; in the assay on MOLT-4 leukemia it was 18.3 µM and 9.64 µM. For the same compound, the TGI in the assay with NCI/ADR-RES ovarian is > 86.7 µM; with SF-295 CNS, 13.8 µM and 5.48 µM; with SNB-75 CNS, 28.5 µM and > 10 µM; in the assay with U251 CNS, 14 µM and > 10 µM.
As for `O=c1c2ccccc2nc(-c2cccc([N+](=O)[O-])c2)n1O`, the TGI in the assay on ACHN renal, in the assay with DU-145 prostate, with HCT-116 colon, in the assay with HS 578T breast, in the assay with LOX IMVI melanoma and with MOLT-4 leukemia was > 100 µM throughout. The TGI in the assay on NCI/ADR-RES ovarian is > 87.4 µM; in the assay with SF-295 CNS it was > 100 µM; with SNB-75 CNS, > 100 µM; with U251 CNS, > 100 µM.
As for `Cn1cc(C2=C(c3ccsc3)C(=O)NC2=O)c2ccccc21`, the GI50 in the assay on ACHN renal, in the assay on DU-145 prostate, in the assay on HCT-116 colon, in the assay with HS 578T breast, in the assay on LOX IMVI melanoma and with MOLT-4 leukemia was > 25 µM each time. The GI50 with NCI/ADR-RES ovarian was > 25 µM; in the assay with SF-295 CNS it was > 25 µM; in the assay with SNB-75 CNS, 1.07 µM; with U251 CNS, > 25 µM. Also, the TGI in the assay on ACHN renal, with DU-145 prostate, with HCT-116 colon, in the assay on HS 578T breast, in the assay on LOX IMVI melanoma and with MOLT-4 leukemia was > 25 µM throughout. Moreover, the TGI in the assay on NCI/ADR-RES ovarian, in the assay on SF-295 CNS, in the assay on SNB-75 CNS and in the assay with U251 CNS was > 25 µM throughout.
Regarding `CC(C)=CCC/C(C)=C/CC/C(C)=C/CSC[C@H](NC(=O)CCCCCN1CCN(C)CC1)C(=O)NC1CCCCCC1`, the GI50 in the assay with ACHN renal was 1.75 µM; in the assay with DU-145 prostate, 1.93 µM; in the assay with HCT-116 colon it was 1.71 µM; in the assay with HS 578T breast it was 1.95 µM; with LOX IMVI melanoma, 1.76 µM; in the assay on MOLT-4 leukemia it was 2.69 µM. Moreover, the GI50 in the assay with NCI/ADR-RES ovarian was 3.89 µM; in the assay on SF-295 CNS it was 1.75 µM; in the assay with SNB-75 CNS, 1.53 µM; in the assay with U251 CNS, 1.73 µM. For the same compound, the TGI with ACHN renal stood at 3.21 µM; in the assay on DU-145 prostate it was 3.52 µM; in the assay on HCT-116 colon, 3.16 µM; in the assay on HS 578T breast, 4.53 µM; in the assay with LOX IMVI melanoma, 3.29 µM; in the assay with MOLT-4 leukemia it was 7.48 µM. For the same compound, the TGI with NCI/ADR-RES ovarian amounted to 14.6 µM; in the assay on SF-295 CNS it was 3.38 µM; in the assay on SNB-75 CNS it was 4.22 µM; in the assay on U251 CNS, 3.19 µM.
Consider `C/C(=C\C(=O)O[C@H]1[C@@H]2[C@H](C)CC[C@H]2[C@]2(C)O[C@@]1(C1CCCCC1)C[C@H]2OC(=O)CO)c1ccccc1`, for which the GI50 in the assay on ACHN renal was 0.0147 µM; with DU-145 prostate, 7.01 µM; in the assay with HCT-116 colon it was 6.18 µM; in the assay with HS 578T breast, 0.0101 µM; in the assay on LOX IMVI melanoma it was 6.97 µM; with MOLT-4 leukemia, 6.42 µM. Besides, the GI50 with NCI/ADR-RES ovarian is 0.348 µM; with SF-295 CNS, 6.08 µM; with SNB-75 CNS, 0.331 µM; in the assay with U251 CNS it was 6.02 µM. Further, the TGI with ACHN renal came out at 6.02 µM; with DU-145 prostate, 12.6 µM; in the assay with HCT-116 colon it was 12 µM; with HS 578T breast it was 0.0295 µM; in the assay on LOX IMVI melanoma it was 12.9 µM; in the assay with MOLT-4 leukemia it was 13.6 µM. For the same compound, the concentration for total growth inhibition (TGI) came to 7.49 µM in the assay with NCI/ADR-RES ovarian, 11.7 µM in the assay on SF-295 CNS, 7.21 µM with SNB-75 CNS and 11.5 µM in the assay on U251 CNS.
With `O=C1NN2CC(c3ccccc3)=NN=C2c2ccccc21`, the GI50 in the assay on ACHN renal was 36.9 µM; with DU-145 prostate it was 31.3 µM; with HCT-116 colon, 17.4 µM; in the assay with HS 578T breast, 68 µM; in the assay on LOX IMVI melanoma, 22.6 µM; in the assay on MOLT-4 leukemia, 11.1 µM. Further, the GI50 in the assay on NCI/ADR-RES ovarian was 17.5 µM; in the assay with SF-295 CNS it was 32.8 µM; in the assay with SNB-75 CNS, > 100 µM; in the assay with U251 CNS, 18 µM. Also, the TGI in the assay on ACHN renal was > 100 µM; with DU-145 prostate, 99 µM; with HCT-116 colon, 36.7 µM; with HS 578T breast, > 100 µM; in the assay with LOX IMVI melanoma, 47 µM; in the assay with MOLT-4 leukemia it was > 100 µM. For the same compound, the TGI is 42.7 µM in the assay with NCI/ADR-RES ovarian, > 100 µM in the assay on SF-295 CNS, > 100 µM in the assay on SNB-75 CNS and 33.9 µM with U251 CNS.
On to `CC(C)=CC[C@@H]1CC2(CC=C(C)C)C(=O)C(OC3(C(=O)c4ccccc4)C(=O)C4(CC=C(C)C)C[C@@H](CC=C(C)C)C(C)(C)C(CC=C(C)C)(C4=O)C3=O)(C(=O)c3ccccc3)C(=O)C(CC=C(C)C)(C2=O)C1(C)C` (stereo not given in full), for which the GI50 was 1.48 µM in the assay on ACHN renal; 1.35 µM with DU-145 prostate; 0.953 µM in the assay on HCT-116 colon; 1.6 µM in the assay on HS 578T breast; 1.23 µM with LOX IMVI melanoma; 1.3 µM with MOLT-4 leukemia. Moreover, the GI50 with NCI/ADR-RES ovarian was 1.6 µM; in the assay with SF-295 CNS it was 1.01 µM; in the assay on SNB-75 CNS, 1.11 µM; with U251 CNS it was 1.64 µM. Moreover, the TGI with ACHN renal turned out to be 5.99 µM; with DU-145 prostate, 3.88 µM; in the assay with HCT-116 colon, 2.3 µM; in the assay with HS 578T breast, 4.67 µM; with LOX IMVI melanoma, 3.24 µM; with MOLT-4 leukemia it was 4.51 µM. The concentration for total growth inhibition (TGI) came to 5.67 µM with NCI/ADR-RES ovarian, 2.5 µM in the assay on SF-295 CNS, 5.62 µM in the assay on SNB-75 CNS and 5.34 µM in the assay with U251 CNS.
Turning to `C[N+]1([O-])C2CCC1CC(OC(=O)C(CO)c1ccccc1)C2` (stereo not given), the TGI in the assay on ACHN renal, in the assay with DU-145 prostate, with HCT-116 colon, in the assay with HS 578T breast, in the assay with LOX IMVI melanoma and in the assay with MOLT-4 leukemia was > 100 µM throughout. Moreover, the TGI in the assay on NCI/ADR-RES ovarian, in the assay on SF-295 CNS, in the assay with SNB-75 CNS and with U251 CNS was > 100 µM throughout.
